Drawing on ChEMBL document CHEMBL1147609, “Comparison of 2-phenylspiroindenes and 2-phenylspiroindenediones as estrogen receptor ligands--modeling and binding data don't agree!” (Bioorg Med Chem Lett, 2004), this text covers IC50 for five compounds.

SMILES strings stand for the structures.

In one experiment the target is T1, Estrogen receptor (Homo sapiens, UniProt P03372).
T1 sequence (P03372 whole entry): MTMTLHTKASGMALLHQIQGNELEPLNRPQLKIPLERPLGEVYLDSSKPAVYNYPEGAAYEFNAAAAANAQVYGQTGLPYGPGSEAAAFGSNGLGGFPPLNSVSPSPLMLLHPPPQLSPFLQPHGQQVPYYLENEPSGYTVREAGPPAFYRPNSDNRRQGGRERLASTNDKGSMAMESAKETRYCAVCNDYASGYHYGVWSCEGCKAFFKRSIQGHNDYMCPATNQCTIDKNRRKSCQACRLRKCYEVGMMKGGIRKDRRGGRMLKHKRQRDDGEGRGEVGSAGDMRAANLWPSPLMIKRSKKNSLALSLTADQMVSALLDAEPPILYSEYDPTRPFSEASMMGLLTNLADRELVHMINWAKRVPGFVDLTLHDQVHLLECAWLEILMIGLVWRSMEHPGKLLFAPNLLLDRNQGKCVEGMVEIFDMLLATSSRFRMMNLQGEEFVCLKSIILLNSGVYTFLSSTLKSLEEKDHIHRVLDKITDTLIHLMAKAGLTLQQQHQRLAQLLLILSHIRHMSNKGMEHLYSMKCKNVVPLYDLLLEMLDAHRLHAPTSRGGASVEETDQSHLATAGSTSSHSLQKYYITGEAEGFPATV
Put plainly: Binding affinity for estrogen receptor alpha.

For another experiment, the target named is Estrogen receptor beta (Homo sapiens, UniProt Q92731). The experiment can be described thus: Binding affinity for estrogen receptor beta.
Chain of Estrogen receptor beta (Q92731 whole entry): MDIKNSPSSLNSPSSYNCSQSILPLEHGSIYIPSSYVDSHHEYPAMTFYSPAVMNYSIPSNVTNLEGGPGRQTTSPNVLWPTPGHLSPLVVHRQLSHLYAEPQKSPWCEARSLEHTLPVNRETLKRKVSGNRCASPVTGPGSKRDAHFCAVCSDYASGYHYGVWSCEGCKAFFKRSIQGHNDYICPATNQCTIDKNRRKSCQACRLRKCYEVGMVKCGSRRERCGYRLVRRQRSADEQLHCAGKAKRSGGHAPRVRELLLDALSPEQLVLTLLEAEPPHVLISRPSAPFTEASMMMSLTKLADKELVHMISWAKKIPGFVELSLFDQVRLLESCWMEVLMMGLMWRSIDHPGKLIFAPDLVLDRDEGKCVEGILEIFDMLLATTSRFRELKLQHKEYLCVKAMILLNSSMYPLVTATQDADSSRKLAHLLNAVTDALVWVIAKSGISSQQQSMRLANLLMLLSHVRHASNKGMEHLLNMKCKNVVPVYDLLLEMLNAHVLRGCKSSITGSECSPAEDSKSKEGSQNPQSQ

As for `Oc1cccc(C2=Cc3cc(O)ccc3C23Cc2ccccc2C3)c1`, the IC50 (in general, the concentration that gives 50% inhibition) turned out to be 35 nM on Estrogen receptor and 28 nM at Estrogen receptor beta.

Regarding `O=C1c2ccccc2C(=O)C12C(c1ccc(O)cc1)=Cc1cc(O)ccc12`, the results for the IC50 on Estrogen receptor and at Estrogen receptor beta were 91 nM and 103 nM, respectively.

Take `O=C1c2ccccc2C(=O)C12C(c1cccc(O)c1)=Cc1cc(O)ccc12`: the IC50 at Estrogen receptor turned out to be 366 nM; at Estrogen receptor beta it was 329 nM.

Consider `Oc1ccc(C2=Cc3cc(O)ccc3C23Cc2ccc(OCCN4CCCCC4)cc2C3)cc1` (centres undefined), for which the half-maximal inhibitory concentration (IC50) on Estrogen receptor beta worked out at 1.8 nM.

As for `O=C1c2ccc(OCCN3CCCCC3)cc2C(=O)C12C(c1ccc(O)cc1)=Cc1cc(O)ccc12` (centres undefined), the IC50 on Estrogen receptor is 172 nM; on Estrogen receptor beta, 223 nM.
